Earlier results on two compounds are cited in article PMC6332596 (Journal of Hematology & Oncology, 2019).

Details of the series: method as in PMID 25933833, PMID 21131552. The settings on record: compared with chiauranib; cited from earlier work.

`Cc1cc(Nc2cc(N3CCN(C)CC3)nc(/C=C/c3ccccc3)n2)n[nH]1` [ENMD-2076]: the “DLTs in phase I trials” value is “more DLTs, such as pancreatic disease and hypertension, fatigue, cholecystitis, and QTc prolonged”. For the compound `Nc1ncc(-c2cnn(CCO)c2)c2scc(-c3ccc(NC(=O)Nc4cccc(F)c4)cc3)c12` [Ilorasertib], the “DLTs in phase I trials” value is “more DLTs, such as pancreatic disease and hypertension, fatigue, cholecystitis, and QTc prolonged”.
